Experimental data from patent US11499978B2, “Method for measuring quality of therapeutic cell through real-time glutathione measurement” (CELL2IN, INC., priority 2017, dated 2022).

Tests used:
[1] = test system: hUC-MSCs; assay: mGSH distribution in hUC-MSCs after RSL3 (MitoFreSH, flow cytometry and confocal imaging); format: cell-based, human
Description: After the cultured human umbilical cord-derived mesenchymal stem cells (hUC-MSCs) at passage 4, 7 or 15 were treated with various concentrations of RSL3 and stained with MitoFreSH, the distribution pattern of mitochondrial GSH (mGSH) in the cells was confirmed by histograms using flow cytometry and confocal imaging.
hUC-MSCs at passage 4, 7 or 15 were prepared, seeded at 70000 cells/well in a 6-well cell culture plate, and cultured at 37° C. for 24 hours. The medium used in the culture was prepared by adding 10% fetal bovine serum and 1× penicillin-streptomycin to α-MEM. […] The cells detached from the plate were transferred to an FACS tube and stored on ice, and a fluorescence level was measured using a flow cytometer.
hUC-MSCs at passage 4, 7 or 15 were prepared, seeded at 7000 cells/100 μl per well in a 96-well cell culture plate, and cultured at 37° C. for 24 hours. […] To remove MitoFreSH-Tracer from the medium before measurement, the medium was exchanged with fresh 10 mM HEPES-containing HBSS, and fluorescence images were measured using a confocal imaging system, Operetta.
A F510/F580 ratio referring to a GSH mean value in cells was calculated by measuring fluorescence values of F510 (fluorescence value when MitoFreSH-Tracer was bound with SH) and F580 (fluorescence value of MitoFreSH-Tracer, which was not bound with SH) in cells and dividing the F510 value by the F580 value. […]

[2] = test system: human dermal fibroblasts; assay: mGSH level in human dermal fibroblasts after RSL3; format: cell-based; settings: as the subculture continued; confocal imaging
Description: As described in the experiment for MSCs, human dermal fibroblasts subcultured several times were treated with RSL3 and the cells were stained with MitoFreSH-Tracer, and a ratio between cells maintaining mGSH and cells not maintaining mGSH was represented as a percentage through confocal imaging.

[3] = test system: hUC-MSCs; assay: CD146 surface expression in mGSH High and mGSH Low hUC-MSCs after RSL3; format: cell-based, human; settings: P4 hUC-MSC group in which mGSH level is lowered by RSL3, compared with mGSH level-maintaining group
From the text: To confirm whether the stem cell function of cells in which an mGSH level decreased is deteriorated under lipid oxidative stress caused by RSL3 treatment, an expression level of CD146, which is a cell surface protein known to be highly expressed in stem cells of high quality according to conventional literature, was confirmed through flow cytometry.
The cells were stained by the same method as a method of measuring a mitochondria GSH level through the flow cytometry described above, and detached from the plate using trypsin. The detached cells were treated with an antibody for flow cytometry with respect to CD146 to which a fluorescent material BUV395 was bound at 4° C. for 30 minutes, and washed with PBS. Using a flow cytometer, F510 and F580 fluorescence values for measuring a GSH level and a BUV395 fluorescence value for measuring CD146 expression were measured. Afterward, based on the point at which the histogram showing the F510/F580 distribution was divided into two peaks, the cells were divided into GSH^High cells (right peak) and GSH^Low cells (left peak) using FlowJo software, and a CD146-positive ratio of the corresponding cells is represented as a percentage (%).

[4] = test system: hUC-MSCs; assay: CFU-F assay of hUC-MSCs; format: cell-based, human; settings: ferrostatin-1 0.2, 1, 2 and 4 μM, liproxstatin-1 0.1, 0.5, 1 and 2 μM, 24 hours, n=3
Description: The inventors observed an effect of the material on stem cells by treating each stem cells with a material for enhancing a glutathione evaluation parameter. When hUC-MSCs were subcultured in a L-AA2G-containing medium, CFU-F, migration capacity, and an anti-inflammatory effect were observed. A CFU-F assay (n=3) was performed by treating hUC-MSCs with 125 or 250 μg/mL of AA2G for three days. As shown in FIGS. 16A and 16B, it was confirmed that, when AA2G was treated, CFU-F increased. In addition, as hUC-MSCs were treated with 125 or 250 μg/mL of AA2G for three days, PDGF-AA-induced migration capacity (n=3) was analyzed. As shown in FIGS. 17A and 17B, it was confirmed that the migration capacity was increased by AA2G treatment. In addition, the reduction in T cell proliferation, the reduction in T cell differentiation, and the promotion of Treg cell differentiation were observed by treating hUC-MSCs with 125 or 250 μg/mL of AA2G for three days. […] Meanwhile, hUC-MSCs were cultured with a glutathione precursor such as γ-glutamyl cysteine (GGC, 0.1, 0.25, and 0.5 mM). A CFU-F assay (n=3) was performed by treating hUC-MSCs with each concentration of GGC for 2 hours. […] In addition, SDF1α and PDGF-AA-induced migration capacities (n=3) were analyzed for hUC-MSCs without treatment with GGC, and SDF1α and PDGF-AA-induced migration abilities (n=3) were analyzed by treating hUC-MSCs with the increasing concentrations of GGC. STI571 was used as a PDGFR kinase inhibitor. As shown in FIGS. 20A to 20C, it was confirmed that, according to an increase in GGC treatment concentration, SDF1α- and PDGF-AA-induced migration capacities were enhanced. A CFU-F assay (n=3) was performed by treating hUC-MSCs with 0.2, 1, 2, and 4 μM ferrostatin-1 and 0.1, 0.5, 1, and 2 μM liproxstatin-1 for 24 hours.

[5] = test system: T cells; assay: Anti-inflammatory effect of treated hUC-MSCs on T cells; format: cell-based
Description: The inventors observed an effect of the material on stem cells by treating each stem cells with a material for enhancing a glutathione evaluation parameter. When hUC-MSCs were subcultured in a L-AA2G-containing medium, CFU-F, migration capacity, and an anti-inflammatory effect were observed. A CFU-F assay (n=3) was performed by treating hUC-MSCs with 125 or 250 μg/mL of AA2G for three days. As shown in FIGS. 16A and 16B, it was confirmed that, when AA2G was treated, CFU-F increased. In addition, as hUC-MSCs were treated with 125 or 250 μg/mL of AA2G for three days, PDGF-AA-induced migration capacity (n=3) was analyzed. As shown in FIGS. 17A and 17B, it was confirmed that the migration capacity was increased by AA2G treatment. In addition, the reduction in T cell proliferation, the reduction in T cell differentiation, and the promotion of Treg cell differentiation were observed by treating hUC-MSCs with 125 or 250 μg/mL of AA2G for three days.
In addition, hUC-MSCs were cultured with ferrostatin-1 (0.2, 1, 2 and 4 μM) and liproxstatin-1 (0.1, 0.5, 1 and 2 μM), which control a glutathione level in cells by inhibiting lipid oxidation. […] Meanwhile, the hUC-MSCs were treated with 1 μM ferrostatin-1 for 24 hours, 0.2 mM GGC for 2 hours, and 2 mM GSH-EE for 2 hours. As a result, the reduction in T cell proliferation ability and the reduction in T cell differentiation capacity were observed, and promotion of Treg cell differentiation was observed.

[6] = hUC-MSCs treated with 1 μM ferrostatin-1 24 h, 0.2 mM GGC 2 h, 2 mM GSH-EE 2 h

Structure (SMILES)	mGSH levels ([1]; hUC-MSCs at passage 4, 7 or 15, RSL3 0.1/0.5/1 μM, depending on RSL3 concentration and passage number)	proportion of cells in which mGSH decreases by treatment with RSL3 [2]	lowering of CD146-positive ratio [3]	CFU-F [4]	anti-inflammatory effect of the hUC-MSCs ([5]; ferrostatin-1 1 μM 24 h, GGC 0.2 mM 2 h, FIGS. 27, 28A to 28C)	T cell differentiation capacity [5, 6]	T cell proliferation ability [5, 6]	Treg cell differentiation [5, 6]	effect of RSL3 on mGSH upon Ferrostatin-1 treatment ([1]; hUC-MSCs treated with RSL3)
COC(=O)c1ccc([C@@H]2c3[nH]c4ccccc4c3C[C@@H](C(=O)OC)N2C(=O)CCl)cc1 [RSL3, 1S,3R-RAS-selective lethal 3]	reduced	increased	approximately 25%						
CCOC(=O)c1ccc(NC2CCCCC2)c(N)c1 [ferrostatin-1]				improved	did not alter	reduction	reduction	promotion	disappeared
